# US8614227B2, “Salt and solvates of a tetrahydroisoquinoline derivative” (Spinifex Pharmaceuticals Pty Ltd, priority 2010, dated 2013)
# Columns and labels:
# [1] = Pharmacokinetics in male beagle dogs after a single oral dose (plasma Compound 1); details: dog, 10 mg/kg
# Description: The study was designed to compare the PK profiles of the following four forms of Compound 1 administered as single oral capsules in fasted state. […] There was a washout period of 4 days between dosing. The blood samples were collected from each animal at predetermined times on the study Days 1, 4, 8 and 11. The plasma was analyzed for Compound 1 by a validated HPLC-MS/MS assay.
# Descriptive PK parameters were determined by standard model independent methods (Gibaldi and Perrier, 1982) based on the individual plasma concentration-time data. Plasma concentrations were rounded to 3 significant figures. Plasma samples with concentrations below the quantifiable assay limit (BQL<2.00 ng/mL) were assigned values of zero for mean calculations. For PK calculations, BQL was set to zero from the pre-dose time up to the time of the first quantifiable concentration and thereafter was set as missing. Nominal time points were used for all calculations. • Cmax is the observed maximum plasma concentration after dosing. • Tmax is the time to reach Cmax. • T1/2 is apparent half-life calculated by ln(2)/λ where λ is the rate constant fix the log-linear portion of the terminal phase. A minimum of three values in the post-distribution phase of the plasma concentration-time curve is required for calculation of X. • AUC(0-T) is the area under the plasma concentration-time curve from time zero to the time of the last measurable plasma concentration determined using the linear trapezoidal rule. • AUC(0-inf) is the area under the plasma concentration-time curve from time zero to infinity. It is calculated by summing AUC(0-T) and the extrapolated area from the T to infinity.
# PK analyses were performed by noncompartmental analysis using model 200 in WinNonlin Professional 6.1 (Pharsight Corp., Mountain View, Calif.).
# [2] = Bulk density, tap density, powder flow, particle size and milling feasibility of Compound 2; type: physicochemical; details: for Tap Density: Autotap 100 cycles
# Description: Compound 2 particle size distribution was determined by sieve screen analysis. A sample of Compound 2 was passed through a series of sieves, which included a 53, 106, 250, 500, 710, and 1000 μm mesh screen. Each screen was weighed before and after the sieving occurred to determine the amount of compound at each particle size.
# The powder flow was determined on a FlowDex apparatus.
# Bulk density was determined by filling a tared 100 mL graduated cylinder with Compound 2. The volume and weight of Compound 2 added was recorded and used to calculate its bulk density. Tap density was then determined by taking the same graduated cylinder filled with Compound 2 and placing it on an Autotap set for 100 cycles. The new powder volume was recorded and used to calculate the tap density.
# 24.73 mg of Compound 2 was weighed directly into a tared 25 mL volumetric flask. The flask was diluted to volume with ACN and inverted to mix. A sample was taken to determine the % purity (% area) of the drug before milling took place. Milling was performed by taking 17.92 g of Compound 2 and passing this material it through a conical mill with an 1143 μm screen. 14.33 g of Compound 2 was recovered and re-analyzed for particle size distribution, bulk density, and tap density. 24.93 mg of milled Compound 2 was weighed directly into a tared 25 mL volumetric flask. The flask was diluted to volume with ACN and inverted to mix. This sample was taken to determine the % purity (% area) after Compound 2 had been milled.
# After Compound 2 had been milled it was blended with 2.5% w/w of colloidal silicon dioxide, Cab-O-Sil®, on a T2 Turbula blender for 2 minutes. The blended powder was collected and its flow properties were analyzed on a FlowDex apparatus.
# [3] = Dissolution comparison of solid sodium salt forms in capsules; type: physicochemical
# Description: Dissolution of three forms of solid sodium salt were analyzed, a monosodium trihydrate (Compound 6), a monosodium salt dihydrate (Compound 7) and amorphous Compound 2.
# The crystalline material was made by exposing amorphous Compound 2 to ambient temperature/75% RH for 24 hrs. These conditions were created using a saturated sodium chloride solution sealed in a desiccant chamber. Once the crystalline material had been created it was collected and stored at 2-8° C. until dissolution testing took place. Two samples for dissolution were prepared by weighing 25 mg±1 mg into size 00 white opaque gelatin capsules.
# Crystalline Compound 7 dihydrate was made by placing a sample of the iso-propanol solvate of Compound 2 at ambient temperature and humidity conditions for 2 weeks. The iso-propanol solvate of Compound 2 readily converts to the dihydrate. Once Compound 7 had been prepared, it was collected and stored at 2-8° C. until dissolution testing was conducted. Two samples for dissolution were prepared by weighing 25 mg±1 mg into size 00 white opaque gelatin capsules.
# Two samples for dissolution were prepared by weighing 25 mg±1 mg of amorphous Compound 2 into size 00 white opaque gelatin capsules.
# The dissolution materials and parameters are set out in Table 33. At each pull time ˜6 mL of media was removed from each vessel and filtered through a 0.45 μm nylon filter. The first 5 mL of solution was discarded and the final 1 mL was collected in a UPLC vial for analysis.
# [4] = HPMC vs gelatin capsules of amorphous Compound 2: potency, purity, water uptake after 1 week; type: physicochemical
# Description: Twenty capsules of both hydroxypropyl methylcellulose (HPMC, also known as Hypromellose) and gelatin were filled with 25±1 mg of amorphous Compound 2 to determine if the lower water content found in HPMC capsules would retard the water uptake of the compound. Samples of Compound 2 in both capsule types were placed at 25° C./60% RH and 40° C./75% RH for 1 week. The samples were analyzed for water content, potency, and % purity (% area) at t=0 and t=1 week.
# 20 transparent size 00 HPMC capsules and 20 transparent size 00 gelatin capsules were hand filled with API.
# Each capsules was filled with 25±1 mg of API.
# The two capsule types were both separated into two 30 cc HDPE bottles with caps and placed at both 25° C./60% RH and 40° C./75% RH for 1 week.
# For the t=0 time point, Compound 2 was analyzed for water content, potency, and % purity (% area).
# Two samples of Compound 2 were taken at t=0 for water content. The first sample was taken after the HPMC capsules had been filled and the second sample was taken after the gelatin capsules had been filled. This sampling procedure was done to offset the water uptake that took place while the capsules were being filled.
# 76.17 mg of Compound 2 was weighed directly into a 100-mL volumetric flask.
# The flask was diluted to volume with ACN and inverted to mix.
# A 1 mL aliquot was transferred directly into an HPLC vial for analysis.
# [5] = Table 42 summary, mean, dogs, single oral 10 mg/kg, plasma Compound 1
# [6] = dog 301, single oral 10 mg/kg dose, plasma Compound 1
# [7] = dog 302, single oral 10 mg/kg dose, plasma Compound 1
# [8] = dog 303, single oral 10 mg/kg dose, plasma Compound 1
# [9] = dog 304, single oral 10 mg/kg dose, plasma Compound 1
# [10] = mean of dogs, single oral 10 mg/kg dose, plasma Compound 1
# [11] = Gelatin Capsules, 25° C., t = 1 week
# [12] = Gelatin Capsules, 40° C., t = 1 week
# [13] = HPMC Capsules, 25° C., t = 1 week
# [14] = HPMC Capsules, 40° C., t = 1 week
compound,measurement,setting,value
"COc1ccc2c(c1OCc1ccccc1)C[C@@H](C(=O)[O-])N(C(=O)C(c1ccccc1)c1ccccc1)C2.[Na+] [Compound 2, sodium salt of (S)-2-(diphenylacetyl)-1,2,3,4-tetrahydro-6-methoxy-5-(phenylmethoxy)-3-isoquinoline carboxylic acid]",AUC(0-t),[1]; [5],1840 ng·h/mL
same,AUC(0-t),[1]; [6],1290 ng·h/mL
same,AUC(0-t),[1]; [7],2350 ng·h/mL
same,AUC(0-t),[1]; [8],1520 ng·h/mL
same,AUC(0-t),[1]; [9],2180 ng·h/mL
same,AUC(0-t),[1]; [10],1830 ng·h/mL
same,AUC(0-inf),[1]; [5],1840 ng·h/mL
same,AUC(0-inf),[1]; [6],1300 ng·h/mL
same,AUC(0-inf),[1]; [7],2350 ng·h/mL
same,AUC(0-inf),[1]; [8],1520 ng·h/mL
same,AUC(0-inf),[1]; [9],2220 ng·h/mL
same,AUC(0-inf),[1]; [10],1840 ng·h/mL
same,Cmax,"[1]; Cmax, dog 301, single oral 10 mg/kg dose, plasma Compound 1",1110 ng/mL
same,Cmax,"[1]; Cmax, dog 302, single oral 10 mg/kg dose, plasma Compound 1",1220 ng/mL
same,Cmax,"[1]; Cmax, dog 303, single oral 10 mg/kg dose, plasma Compound 1",1750 ng/mL
same,Cmax,"[1]; Cmax, dog 304, single oral 10 mg/kg dose, plasma Compound 1",2270 ng/mL
same,Cmax,"[1]; Cmax, mean of dogs, single oral 10 mg/kg dose, plasma Compound 1",1590 ng/mL
same,half-life,"[1]; Mean harmonic T1/2, male beagle dogs, single oral 10 mg/kg capsule, fasted, Compound 1 in plasma",2.49 ± 0.391 h
same,half-life,"[1]; T1/2, Table 42 summary, harmonic mean, dogs, single oral 10 mg/kg, plasma Compound 1",2.49 h
same,half-life,"[1]; T1/2, dog 301, single oral 10 mg/kg dose, plasma Compound 1",2.51 h
same,half-life,"[1]; T1/2, dog 302, single oral 10 mg/kg dose, plasma Compound 1",2.73 h
same,half-life,"[1]; T1/2, dog 303, single oral 10 mg/kg dose, plasma Compound 1",2.05 h
same,half-life,"[1]; T1/2, dog 304, single oral 10 mg/kg dose, plasma Compound 1",2.81 h
same,half-life,"[1]; T1/2, harmonic mean of dogs, single oral 10 mg/kg dose, plasma Compound 1",2.49 h
same,Tmax,"[1]; Tmax, Table 42 summary, median, dogs, single oral 10 mg/kg, plasma Compound 1",0.75 h
same,Tmax,"[1]; Tmax, dog 301, single oral 10 mg/kg dose, plasma Compound 1",0.75 h
same,Tmax,"[1]; Tmax, dog 302, single oral 10 mg/kg dose, plasma Compound 1",1 h
same,Tmax,"[1]; Tmax, dog 303, single oral 10 mg/kg dose, plasma Compound 1",0.75 h
same,Tmax,"[1]; Tmax, dog 304, single oral 10 mg/kg dose, plasma Compound 1",0.5 h
same,Tmax,"[1]; Tmax, median of dogs (Mean column), single oral 10 mg/kg dose, plasma Compound 1",0.75 h
same,Cmax,"[1]; mean Cmax, male beagle dogs, single oral 10 mg/kg capsule, fasted, Compound 1 in plasma, mean±SD",1590 ± 534 ng/mL
same,Tmax,"[1]; median Tmax, male beagle dogs, single oral 10 mg/kg capsule, fasted, Compound 1 in plasma",0.75 h
same,average particle size,[2]; after milling,~560 μm
same,% Purity with milling,[2]; before vs after milling,% Purity of Compound 2 sample did not change with milling.
same,powder flow (FlowDex),[2]; bulk unmilled,"unable to pass through the largest available, 34 mm, orifice"
same,average particle size,"[2]; bulk, before milling",~775 μm
same,Bulk Density,"[2]; milled (conical mill, 1143 μm screen)",0.073 g/mL
same,Tap Density,[2]; milled,0.098 g/mL
same,powder flow (FlowDex),"[2]; milled, blended with 2.5% w/w colloidal silicon dioxide",passed through a 34 mm orifice but failed to pass through a 32 mm orifice
same,Bulk Density,[2]; unmilled,0.089 g/mL
same,Tap Density,[2]; unmilled,0.114 g/mL
same,% Dissolution,"[3]; 15 mins, 25 mg in gelatin capsule, pH 6.8 phosphate buffer 900 mL, 37° C., 50 RPM",77.8%
same,% Dissolution,"[3]; 30 mins, pH 6.8 phosphate buffer, 50 RPM",83.6%
same,% Dissolution,"[3]; 45 mins, pH 6.8 phosphate buffer, 50 RPM",86.3%
same,% Dissolution,"[3]; 60 mins, pH 6.8 phosphate buffer, 50 RPM",88.8%
same,% Dissolution,"[3]; 120 mins, pH 6.8 phosphate buffer, 150 RPM for 2nd hour",92.9%
same,dissolution rate (comparison of forms),"[3]; pH 6.8 phosphate buffer, capsules",dissolved considerably faster
same,% Potency,[4]; [11],90.1%
same,% a/a Purity,[4]; [11],98.95 % a/a
same,Δ% a/a Purity,[4]; [11],0.00 % a/a
same,% Potency,[4]; [12],90.8%
same,% a/a Purity,[4]; [12],98.88 % a/a
same,Δ% a/a Purity,[4]; [12],−0.07 % a/a
same,% Potency,[4]; [13],90.2%
same,% a/a Purity,[4]; [13],98.95 % a/a
same,Δ% a/a Purity,[4]; [13],0.00 % a/a
same,% Potency,[4]; [14],89.8%
same,% a/a Purity,[4]; [14],98.74 % a/a
same,Δ% a/a Purity,[4]; [14],−0.21 % a/a
same,% Potency,[4]; Sample t = 0,86.3%
same,% a/a Purity,[4]; Sample t = 0,98.95 % a/a
same,potency and % purity (% area) after 1 week,"[4]; all conditions tested (HPMC and gelatin capsules, 25° C./60% RH and 40° C./75% RH)",unchanged
same,slowing of the uptake of water by HPMC capsules relative to gelatin,"[4]; stored at 40° C./75% RH, 1 week",3.74%
